From PubChem BioAssay (NCI)
Several values for one entry are separate records, joined by “and”; a condition that tells them apart may be missing. Equal entries are not always repeated.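 Method: 48-hour compound exposure of cells in 96-well plates, five concentrations, linear interpolation of endpoints. Here, GI50 denotes the concentration required for 50% inhibition of growth. Definition used: TGI = concentration required for complete inhibition of growth.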

Columns and labels:
Assay in all cases: inhibition of tumour cell growth, NCI panel, 48 h
M14 melanoma = test system: M14 melanoma
KM12 colon = test system: KM12 colon
CCRF-CEM leukemia = test system: CCRF-CEM leukemia
HOP-92 NSCLC = test system: HOP-92 NSCLC
OVCAR-5 ovarian = test system: OVCAR-5 ovarian
HT29 colon = test system: HT29 colon
MDA-MB-435 = test system: MDA-MB-435
SK-OV-3 ovarian = test system: SK-OV-3 ovarian
HCT-116 colon = test system: HCT-116 colon
SN12C renal = test system: SN12C renal
MDA-MB-231 breast = test system: MDA-MB-231 breast
SF-295 CNS = test system: SF-295 CNS
HS 578T breast = test system: HS 578T breast
HCT-15 colon = test system: HCT-15 colon
A549 NSCLC = test system: A549 NSCLC
786-0 renal = test system: 786-0 renal
HCC-2998 colon = test system: HCC-2998 colon
NCI/ADR-RES ovarian = test system: NCI/ADR-RES ovarian
UACC-257 melanoma = test system: UACC-257 melanoma
IGROV1 ovarian = test system: IGROV1 ovarian
A498 renal = test system: A498 renal
BT-549 breast = test system: BT-549 breast
HOP-62 NSCLC = test system: HOP-62 NSCLC
ACHN renal = test system: ACHN renal
HL-60(TB) leukemia = test system: HL-60(TB) leukemia
OVCAR-3 ovarian = test system: OVCAR-3 ovarian
DU-145 prostate = test system: DU-145 prostate
TK-10 renal = test system: TK-10 renal

CC1=C/C=C/C(=O)O[C@@H]([C@H](C)[C@H](O)[C@@H](C)NC(=O)C(C)C)[C@H](C)/C=C/C(C)=C/[C@H]2C=CCC[C@@]2(C)\C=C\1
GI50 (M14 melanoma): 37.7 nM and 29.3 nM
TGI (M14 melanoma): 216 nM and 125 nM
GI50 (KM12 colon): 518 nM and 343 nM
TGI (KM12 colon): > 42300 nM
GI50 (CCRF-CEM leukemia): 5170 nM and 2260 nM
TGI (CCRF-CEM leukemia): 17600 nM
GI50 (HOP-92 NSCLC): 59 nM and 54.5 nM
TGI (HOP-92 NSCLC): 6500 nM
GI50 (OVCAR-5 ovarian): 8430 nM and 5430 nM
TGI (OVCAR-5 ovarian): 14300 nM
GI50 (HT29 colon): 233 nM and 59.5 nM
TGI (HT29 colon): 6850 nM
GI50 (MDA-MB-435): 33.5 nM and 16.5 nM
TGI (MDA-MB-435): 6430 nM
GI50 (SK-OV-3 ovarian): 3090 nM and 872 nM
TGI (SK-OV-3 ovarian): > 42300 nM
GI50 (HCT-116 colon): 44.6 nM and 23.2 nM
TGI (HCT-116 colon): 6300 nM
GI50 (SN12C renal): 806 nM and 275 nM
TGI (SN12C renal): 8460 nM
GI50 (MDA-MB-231 breast): 18.6 nM
TGI (MDA-MB-231 breast): 106 nM
GI50 (SF-295 CNS): 26.4 nM
TGI (SF-295 CNS): 7500 nM
GI50 (HS 578T breast): 6730 nM and 1900 nM
TGI (HS 578T breast): > 42300 nM
GI50 (HCT-15 colon): 231 nM and 275 nM
TGI (HCT-15 colon): 9150 nM
GI50 (A549 NSCLC): 1830 nM and 328 nM
TGI (A549 NSCLC): 13200 nM
GI50 (786-0 renal): 506 nM and 147 nM
TGI (786-0 renal): 8060 nM
GI50 (HCC-2998 colon): 561 nM and 4670 nM
TGI (HCC-2998 colon): 23500 nM
GI50 (NCI/ADR-RES ovarian): 1430 nM and 879 nM
TGI (NCI/ADR-RES ovarian): 27600 nM
TGI (UACC-257 melanoma): 13300 nM
GI50 (IGROV1 ovarian): 603 nM and 189 nM
TGI (IGROV1 ovarian): 10700 nM
GI50 (A498 renal): 6030 nM and 5250 nM
TGI (A498 renal): 32800 nM
GI50 (BT-549 breast): 836 nM and 1130 nM
TGI (BT-549 breast): 16300 nM
GI50 (HOP-62 NSCLC): 2130 nM and 4680 nM
TGI (HOP-62 NSCLC): 12500 nM
GI50 (ACHN renal): 136 nM
TGI (ACHN renal): 6980 nM
GI50 (HL-60(TB) leukemia): 744 nM and 747 nM
TGI (HL-60(TB) leukemia): 9120 nM and 13700 nM
GI50 (OVCAR-3 ovarian): 2770 nM and 1770 nM
TGI (OVCAR-3 ovarian): 9330 nM
GI50 (DU-145 prostate): 4640 nM and 652 nM
TGI (DU-145 prostate): 8980 nM
GI50 (TK-10 renal): 6120 nM
TGI (TK-10 renal): 19000 nM
